From patent US7745446B2, “Pyrazolo[1,5-c]pyrimidines” (Bayer Schering Pharma Aktiengesellschaft, priority 2004, dated 2010) come the findings set out here.

Each structure is given as a SMILES string.

The target of experiment [1] is T1, full-length Akt1 (active) (Homo sapiens, UniProt P31749).
T1 construct: recombinant full-length human Akt1, containing N-terminal His6 tag; His6 (N); GST (N); purchased Upstate, UK #14-276; host or cells: baculovirus infected Sf21 insect cells
As to the kind of experiment: Biochemical Akt1 assay (full-length Akt1 active, flashplate, Crosstide). Conditions: 100 nM ATP, Crosstide substrate; read-out: Akt1 inhibition (full-length Akt1, active): IC50. From the text:
For the biochemical Akt1 assay recombinant full-length human Akt1, containing N-terminal His6 tag is cloned and expressed in baculovirus infected Sf21 insect cells. Akt1 is activated with GST-MAPKAP-K2 and PDK1, and repurified on Ni2+/NTA-agrose and glutathioneagarose (Upstate, UK; #14-276).
In order to study the inhibition of Akt1 (full-length version) according to the invention, a flashplate-based assay has been developed.
The full-length Akt1 assay is a biochemical assay using Akt1 N-terminally fused to GST and co-expressed with PDKI in insect cells. The Akt1 assay is run in 96 well plates by incubating 500 ng/well GST-Akt1, 1 μM Crosstide (N-terminally biotinylated synthetic peptide (KGSGSGRPRTSSFAEG) Upstate, #12-385) as substrate, 10 μl of test compound (test compounds were dissolved as 10 mM solutions in dimethylsulfoxide (DMSO) and subsequently diluted) and 100 nM ATP (including ^33P-ATP) in 100 μl of reaction buffer (50 mM HEPES, pH7,5; 3 mM MgCl2; 3 mM MnCl2; 3 μM Na-Orthovanadat; 1 mM DTT; 1 μg/ml PEG8000) for 60 minutes at 30° C. in 96 well microtiter plates. The reactions are terminated by adding 100 μl stopping buffer (5M NaCl, 35 mM EDTA pH 8.0) for 5 minutes. 190μl of the reaction mixture are transferred into streptavidin-coated Flashplates (Perkin Elmer, #SMP-103) and incubated for further 30 minutes at room temperature. The plates are washed 3 times by using washing buffer (0.9% NaCl). Relying on the incorporation of ^33P into the peptide substrate crosstide, the detection is based on the specific binding of the biotinylated peptide to the streptavidin-coated surface of scintillator-coated flash plates (NEN, USA; #SMP-103). This phosphorylation is measured by counting the plate for 60 sec. using a plate reader (Wallac Microbeta; Perkin Elmer, USA).

A further experiment has as its system MDA-MB-468 cells. The experiment is described as follows: Cellular proliferation/cytotoxicity assay (Alamar Blue), MDA-MB-468. Conditions: Homo sapiens, MDA-MB-468, 48 h, read-out: Anti-proliferative/cytotoxic activity: IC50 MDA468. On the technique in general: Alamar Blue is a resazurin reagent that responds to reducing activity.
In experiment [2] the test system is phosphorylated GSK3 (Ser9) in MCF7 cells. The experiment is described as follows: Cellular pGSK3 assay (pGSK3-ELISA). In kind it is cell-based. Conditions: Homo sapiens, 48 h, read-out: GSK3 inhibition (pGSK3-ELISA): IC50. As for the experimental part: In order to study the cellular activity of the compounds according to the invention, an ELISA-based assay has been established for the phosphorylated glycogen synthetase kinase 3, GSK3. The assay is based on a solid phase sandwich ELISA that detects endogenous levels of the phosphorylated GSK3 (BioSource International, Inc.; Catalog #KH00461). A phospho-GSK3 (Ser9) antibody has been coated onto the microwells. After incubation with cell lysates, the coated antibody captures the phosphorylated GSK3 protein. Following extensive washing, GSK3 polyclonal antibody is added to detect the captured phospho-GSK3 protein. […] (anti-rabbit IgG-HRP) is then used to recognize the bound detection antibody. After the second incubation and washing to remove all the excess anti-rabbit IgG-HRP, a substrate solution is added, which is acted upon by the bound enzyme to produce color. The intensity of this colored product is directly proportional to the concentration of […] [pS9] present in the original specimen.
MCF7 cells (ATCC HTB-22) are seeded into 96 well plates at a density of 10000 cells/well.
Cells are harvested and lysed with brief vortexing in cell extraction buffer (10 mM Tris, pH 7.4, 100 mM NaCl, 1 mM EDTA, 1 mM EGTA, 1 mM NaF, 20 mM Na4P2O7, 2 mM Na3VO4, 1% Triton X-100, 10% glycerol, 0.1% SDS, 0.5% deoxycholate, 1 mM PMSF). The lysate are centrifuged for 10 minutes at 4° C. and the supernatant transferred to a new tube. 50 μl of sample diluent (standard diluent buffer, Biosource) are added and 100 μl of cell lysate transferred into the tube and vortexed. 100 μl of each diluted cell lysate are added to the appropriate well (phospho-GSK3 (Ser9) antibody coated microwells; BioSource) and incubated for 3 h at room temperature. The plates are washed 4 times with 1× wash buffer (Biosource). […] The absorbance is measured at 450 nm (Wallac Victor2; Perkin Elmer, USA) within 30 minutes after adding Stop solution. The analysis of the data is performed using a statistical program (Microsoft Excel, USA) and the inhibition of pGSK3 phosphorylation is determined.
For orientation: In an ELISA, binding on a coated surface is turned into a signal by an enzyme label.

The subject of another experiment is MCF7 cells. As to the kind of experiment: Cellular proliferation/cytotoxicity assay (Alamar Blue), MCF7. Conditions: Homo sapiens, MCF7, 48 h, read-out: Anti-proliferative/cytotoxic activity: IC50 MCF7.

T1 sequence (P31749 whole entry): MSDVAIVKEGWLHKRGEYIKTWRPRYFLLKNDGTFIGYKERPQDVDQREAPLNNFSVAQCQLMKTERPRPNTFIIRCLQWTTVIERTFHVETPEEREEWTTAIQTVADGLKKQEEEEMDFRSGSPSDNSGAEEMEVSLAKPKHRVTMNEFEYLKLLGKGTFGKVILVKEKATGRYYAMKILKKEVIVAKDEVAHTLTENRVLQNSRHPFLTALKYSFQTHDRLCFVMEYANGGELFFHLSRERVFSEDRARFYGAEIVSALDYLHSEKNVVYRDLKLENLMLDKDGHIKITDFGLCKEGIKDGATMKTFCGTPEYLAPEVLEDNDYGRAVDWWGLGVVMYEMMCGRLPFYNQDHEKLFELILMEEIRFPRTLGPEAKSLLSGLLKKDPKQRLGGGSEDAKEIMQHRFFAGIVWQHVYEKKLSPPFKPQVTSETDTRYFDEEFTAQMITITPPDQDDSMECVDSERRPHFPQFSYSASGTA
Method for MDA-MB-468 cells: The anti-proliferative activity of the compounds as described herein, is evaluated using MCF7 and MDA-MB-468 (ATCC HTB-22 and HTB-132) cell lines and the Alamar Blue (Resazurin) cell viability assay (O'Brien et al. Eur J Biochem 267, 5421-5426, 2000). Resazurin is reduced to the fluorescent resorufin by cellular dehydrogenase activity, correlating with viable, proliferating cells. Test compounds are dissolved as 10 mM solutions in DMSO and subsequently diluted. MCF7 or MDA-MB-434 cells were seeded into 96 well flat bottom plates at a density of 10000 cells/well (MCF7) or 5000 cells/well (MDA-MB-468) in a volume of 200 μl/well. 24 hours after seeding, 1 μl each of the compound dilutions are added into each well of the 96 well plates. Each compound dilution is tested as at least as duplicates. Wells containing untreated control cells were filled with 200 μl DMEM containing 0.5% v:v DMSO. The cells are then incubated with the substances for 48 hours at 37° C. in a humidified atmosphere containing 5% carbon dioxide. To determine cell viability, 20 μl of a Resazurin solution (Sigma; 90 mg/l) are added. After 4 hours incubation at 37° C. the fluorescence is measured at an extinction of 544 nm and an emission of 590 nm (Wallac Victor2; Perkin Elmer, USA). For the calculation of the cell viability the emission value from untreated cells is set as 100% viability and the emission rates of treated cells are set in relation to the values of untreated cells. Viabilities are expressed as % values. The corresponding IC50 values of the compounds for cytotoxic activity are determined from the concentration-effect curves by means of non-linear regression. The analysis of the data is performed using a biostatistical program (GraphPad Prism, USA).

On to `NCCCC(=O)Nc1ccc(Nc2nc(-c3cccc4c3oc3ccccc34)cc3ccnn23)cc1` [Example 24, 4-Amino-N-[4-(5-dibenzofuran-4-yl-pyrazolo[1,5-c]pyrimidin-7-ylamino)-phenyl]-butyramide], for which the IC50 in experiment [1] was not above 4.03 µM; with MDA-MB-468 cells, not above 13.6 µM; in experiment [2], less than 10 µM; in the experiment on MCF7 cells it was not above 16.9 µM.
As to `COc1cccc(-c2ccc(-c3cc4ccnn4c(Nc4ccc(NC(=O)c5ccc(CN)cc5)cc4)n3)cc2)c1` [Example 59, 4-Aminomethyl-N-{4-[5-(3′-methoxy-biphenyl-4-yl)-pyrazolo[1,5-c]pyrimidin-7-ylamino]-phenyl}-benzamide], the IC50 was not above 4.03 µM in experiment [1], not above 13.6 µM in the experiment on MDA-MB-468 cells, less than 10 µM in experiment [2] and not above 16.9 µM in the experiment with MCF7 cells.
For the compound `O=C(Nc1cccc(Nc2nc(-c3cccc4c3oc3ccccc34)cc3ccnn23)c1)c1ccc2c(c1)CCNC2` [Example 63, 1,2,3,4-Tetrahydro-isoquinoline-6-carboxylic acid [3-(5-dibenzofuran-4-yl-pyrazolo[1,5-c]pyrimidin-7-ylamino)-phenyl]-amide], the IC50 in experiment [1] was not above 4.03 µM; with MDA-MB-468 cells, not above 13.6 µM; in experiment [2], less than 10 µM; with MCF7 cells, not above 16.9 µM.
Take `COc1cccc(-c2ccc(-c3cc4c(Br)cnn4c(Nc4ccc(NC(=O)c5ccc(CN)cc5)cc4)n3)cc2)c1` [Example 87, 4-Aminomethyl-N-{4-[3-bromo-5-(3′-methoxy-biphenyl-4-yl)-pyrazolo[1,5-c]pyrimidin-7-ylamino]-phenyl}-benzamide]: the figures for the IC50 (in experiment [1]; in the experiment with MDA-MB-468 cells; with MCF7 cells) were not above 4.03 µM, not above 13.6 µM and not above 16.9 µM, respectively.
